Reference: ChEMBL document CHEMBL4834434, “Discovery of Novel and Potent N-Methyl-d-aspartate Receptor Positive Allosteric Modulators with Antidepressant-like Activity in Rodent Models” (J Med Chem, 2021)
Active and inactive are the calls of the source. The rule behind the calls is not given here.

Key:
[1] = Ratio of drug concentration in brain to plasma in ICR mouse at 3 mg/kg, iv measured at 2 hrs by LC-MS/MS analysis; type: ADME, organism-based; conditions: read-out: BPR
[2] = Drug concentration in ICR mouse plasma at 10 mg/kg, po measured at 2 hrs by LC-MS/MS analysis; type: ADME, organism-based
L929 = assay: Cytotoxicity against mouse L929 cells assessed as cell growth inhibition measured after 48 hrs by CCK8 assay; type: cell-based; conditions: L929, 48 h
Mus musculus [3] = assay: Antidepressant activity in ICR mouse assessed as decrease in immobility time at 30 mg/kg, ip measured after 26 mins by forced swim test; type: functional, organism-based
Mus musculus [4] = assay: Antidepressant activity in ICR mouse assessed as decrease in immobility time at 3 to 10 mg/kg, ip measured after 26 mins by forced swim test; type: functional, organism-based; conditions: dose 3-10 mg/kg
[5] = Brain to blood partition coefficient of the compound; type: physicochemical, tissue-based; conditions: read-out: logBB (converted)
[6] = Cytotoxicity against African green monkey Vero cells assessed as cell growth inhibition at 120 uM measured after 48 hrs by CCK8 assay relative to control; type: cell-based; conditions: chlorocebus sabaeus
[7] = Oral bioavailability in ICR mouse at 10 mg/kg measured up to 24 hrs by HPLC-MS/MS analysis; type: ADME, organism-based; conditions: in vivo
[8] = Acute toxicity in ip dosed ICR mouse assessed as lethal dose measured after 24 hrs; type: organism-based; conditions: in vivo
[9] = Ratio of drug concentration in brain to plasma in ICR mouse at 3 mg/kg, iv measured at 0.5 hrs by LC-MS/MS analysis; type: ADME, organism-based; conditions: read-out: BPR
[10] = Cytotoxicity against human HEK293 cells assessed as cell growth inhibition at 60 uM measured after 48 hrs by CCK8 assay relative to control; type: cell-based
[11] = Volume of distribution at steady state in ICR mouse at 3 mg/kg, iv measured up to 24 hrs by HPLC-MS/MS analysis; type: ADME, organism-based; conditions: in vivo, read-out: Vdss
[12] = MRT in ICR mouse at 10 mg/kg, po measured up to 24 hrs by HPLC-MS/MS analysis; type: ADME, organism-based; conditions: in vivo
[13] = AUC (0 to t) in ICR mouse at 3 mg/kg, iv measured up to 24 hrs by HPLC-MS/MS analysis; type: ADME, organism-based; set-up: route intravenous, dose 3 mg/kg, time <=24; conditions: in vivo
[14] = Effect on locomotor activity in ICR mouse assessed as hypolocomotion at 10 mg/kg, ip measured after 90 mins; type: ADME, organism-based; conditions: in vivo, 1.5 h
[15] = Cytotoxicity against mouse L929 cells assessed as cell growth inhibition at 60 uM measured after 48 hrs by CCK8 assay relative to control; type: cell-based
[16] = […] in ICR mouse assessed as change in behaviour at 30 mg/kg, po administered for 28 days; type: organism-based; conditions: in vivo, 672 h, time 28 day
[17] = Drug concentration in ICR mouse plasma at 3 mg/kg, iv measured at 0.5 hrs by LC-MS/MS analysis; type: ADME, organism-based
[18] = Cytotoxicity against mouse L929 cells assessed as cell growth inhibition at 120 uM measured after 48 hrs by CCK8 assay relative to control; type: cell-based
[19] = Half life in ICR mouse at 10 mg/kg, po measured up to 24 hrs by HPLC-MS/MS analysis; type: ADME, organism-based; conditions: in vivo
[20] = Cytotoxicity against human HEK293 cells assessed as cell growth inhibition at 120 uM measured after 48 hrs by CCK8 assay relative to control; type: cell-based
hERG (KCNH2) [21] = biological target: T1, hERG (KCNH2) (Homo sapiens, UniProt Q12809); assay: Inhibition of human ERG expressed in CHO cells at 100 uM with holding potential at -80 to -60 mV for 500s followed by raise in potential at +30 mV for 2 sec and subsequent repolarization to -60 mV for 2 sec by whole-cell patch clamp method relative to control; type: cell-based; conditions: CHO cells expressing human ERG
T1 sequence (Q12809 whole entry): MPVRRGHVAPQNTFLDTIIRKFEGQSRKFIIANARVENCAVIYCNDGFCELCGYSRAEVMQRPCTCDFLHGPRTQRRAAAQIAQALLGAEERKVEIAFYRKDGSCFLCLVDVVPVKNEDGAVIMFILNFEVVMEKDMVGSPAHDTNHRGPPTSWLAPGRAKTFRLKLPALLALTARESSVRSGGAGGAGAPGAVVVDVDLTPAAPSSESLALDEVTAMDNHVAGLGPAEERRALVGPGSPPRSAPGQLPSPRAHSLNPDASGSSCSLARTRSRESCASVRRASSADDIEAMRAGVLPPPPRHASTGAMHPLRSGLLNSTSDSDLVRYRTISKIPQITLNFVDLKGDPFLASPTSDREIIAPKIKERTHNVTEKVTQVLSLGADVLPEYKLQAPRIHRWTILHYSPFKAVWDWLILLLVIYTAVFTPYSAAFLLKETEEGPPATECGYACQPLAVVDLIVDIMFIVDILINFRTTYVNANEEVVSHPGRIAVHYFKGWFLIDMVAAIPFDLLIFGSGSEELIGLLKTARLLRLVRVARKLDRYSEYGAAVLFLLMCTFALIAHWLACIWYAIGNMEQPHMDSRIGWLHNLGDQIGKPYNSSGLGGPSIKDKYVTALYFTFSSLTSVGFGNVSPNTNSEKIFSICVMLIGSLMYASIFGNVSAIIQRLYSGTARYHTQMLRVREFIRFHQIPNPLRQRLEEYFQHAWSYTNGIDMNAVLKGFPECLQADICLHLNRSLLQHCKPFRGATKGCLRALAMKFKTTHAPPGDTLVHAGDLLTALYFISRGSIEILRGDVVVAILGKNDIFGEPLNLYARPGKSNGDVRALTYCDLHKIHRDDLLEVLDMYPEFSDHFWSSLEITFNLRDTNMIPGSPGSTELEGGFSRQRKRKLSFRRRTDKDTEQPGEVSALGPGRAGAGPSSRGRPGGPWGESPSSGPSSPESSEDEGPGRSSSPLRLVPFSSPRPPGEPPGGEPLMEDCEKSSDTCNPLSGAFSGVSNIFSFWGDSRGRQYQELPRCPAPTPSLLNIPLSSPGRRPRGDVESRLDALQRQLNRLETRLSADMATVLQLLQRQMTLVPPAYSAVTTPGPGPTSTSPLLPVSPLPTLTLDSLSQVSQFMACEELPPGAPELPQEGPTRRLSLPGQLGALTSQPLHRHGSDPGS

[22] = […] in ICR mouse assessed as decrease in body weight at 30 mg/kg, po administered for 28 days; type: organism-based; conditions: in vivo, 672 h, time 28 day
[23] = Effect on locomotor activity in ICR mouse assessed as hyperlocomotion at 10 mg/kg, ip measured after 90 mins; type: ADME, organism-based; conditions: in vivo, 1.5 h
[24] = Half life in ICR mouse at 3 mg/kg, iv measured up to 24 hrs by HPLC-MS/MS analysis; type: ADME, organism-based; conditions: in vivo
[25] = Drug concentration in ICR mouse brain at 3 mg/kg, iv measured at 2 hrs; type: ADME, organism-based; conditions: read-out: Ct
[26] = Drug concentration in ICR mouse brain at 10 mg/kg, po measured at 2 hrs by LC-MS/MS analysis; type: ADME, organism-based; conditions: read-out: Ct
[27] = Cmax in ICR mouse at 10 mg/kg, po measured up to 24 hrs by HPLC-MS/MS analysis; type: ADME, organism-based; set-up: route oral, dose 10 mg/kg, time <=24; conditions: in vivo
[28] = Drug concentration in ICR mouse plasma at 3 mg/kg, iv measured at 2 hrs; type: ADME, organism-based
[29] = Drug concentration in ICR mouse plasma at 10 mg/kg, po measured at 0.5 hrs by LC-MS/MS analysis; type: ADME, organism-based
[30] = […] in ICR mouse assessed as body weight gain at 30 mg/kg, po administered for 28 days; type: organism-based; conditions: in vivo, 672 h, time 28 day
Glutamate NMDA receptor = assay: Positive allosteric modulation of C57BL/6 mouse NMDA receptor assessed as potentiation of NMDA-induced current in presence of saturating glutamate by patch-clamp method; type: tissue-based, Brain
[31] = Clearance in ICR mouse at 3 mg/kg, iv measured up to 24 hrs by HPLC-MS/MS analysis; type: ADME, organism-based; conditions: in vivo
[32] = Ratio of drug concentration in brain to plasma in ICR mouse at 10 mg/kg, po measured at 2 hrs by LC-MS/MS analysis; type: ADME, organism-based; conditions: read-out: BPR
Vero = assay: Cytotoxicity against African green monkey Vero cells assessed as cell growth inhibition measured after 48 hrs by CCK8 assay; type: cell-based; conditions: Chlorocebus sabaeus
Mus musculus [33] = assay: Antidepressant activity in ICR mouse aassessed as inhibition of apomorphine-induced climbing behaviour at 10 mg/kg, ip administered prior to APO challenge and measured after 30 mins; type: functional, organism-based
[34] = Cytotoxicity against African green monkey Vero cells assessed as cell growth inhibition at 60 uM measured after 48 hrs by CCK8 assay relative to control; type: cell-based; conditions: chlorocebus sabaeus
[35] = Ratio of drug concentration in brain to plasma in ICR mouse at 10 mg/kg, po measured at 0.5 hrs by LC-MS/MS analysis; type: ADME, organism-based; conditions: read-out: BPR
[36] = Tmax in ICR mouse at 10 mg/kg, po measured up to 24 hrs by HPLC-MS/MS analysis; type: ADME, organism-based; conditions: in vivo
[37] = MRT in ICR mouse at 3 mg/kg, iv measured up to 24 hrs by HPLC-MS/MS analysis; type: ADME, organism-based; conditions: in vivo
[38] = Drug concentration in ICR mouse brain at 10 mg/kg, po measured at 0.5 hrs by LC-MS/MS analysis; type: ADME, organism-based; conditions: read-out: Ct
[39] = AUC (0 to t) in ICR mouse at 10 mg/kg, po measured up to 24 hrs by HPLC-MS/MS analysis; type: ADME, organism-based; set-up: route oral, dose 10 mg/kg, time <=24; conditions: in vivo
HEK293 = assay: Cytotoxicity against human HEK293 cells assessed as cell growth inhibition measured after 48 hrs by CCK8 assay; type: cell-based; conditions: HEK293, 48 h
[40] = Drug concentration in ICR mouse brain at 3 mg/kg, iv measured at 0.5 hrs by LC-MS/MS analysis; type: ADME, organism-based; conditions: read-out: Ct
hERG (KCNH2) [41] = biological target: T1, hERG (KCNH2); assay: Inhibition of human ERG expressed in CHO cells at 30 uM with holding potential at -80 to -60 mV for 500s followed by raise in potential at +30 mV for 2 sec and subsequent repolarization to -60 mV for 2 sec by whole-cell patch clamp method relative to control; type: cell-based; conditions: CHO cells expressing human ERG

SMILES: O=C(Nc1cc(Cl)cc(Cl)c1)c1ccc(Cn2nc(C(F)(F)F)cc2C(F)(F)F)o1
- Kp at 2 h [1]: 0.16
- concentration at 2 h [2]: 989 ng/mL
- IC50 (L929): 29.7 µM
- Activity (Mus musculus [3]): Active
- Activity (Mus musculus [4]): Active
- Kp [5]: 3.98
- inhibition at 48 h, 120 µM [6]: 95.8%
- bioavailability [7]: 72.2%
- LD50 at 24 h [8]: 1500 mg/kg
- Kp at 0.5 h [9]: 0.14
- inhibition at 48 h, 60 µM [10]: 42%
- Vd [11]: 12.7 L/kg
- MRT [12]: 4.7 h
- AUC(0-t) at 24 h [13]: 1750 ng·h/mL
- Activity [14]: Non-Toxic
- inhibition at 48 h, 60 µM [15]: 84.3%
- Activity [16]: Non-Toxic
- concentration at 0.5 h [17]: 506 ng/mL
- inhibition at 48 h, 120 µM [18]: 90.6%
- half-life [19]: 5.7 h
- inhibition at 48 h, 120 µM [20]: 73.6%
- inhibition at 2 s, 100 µM (hERG (KCNH2) [21]): 68.4%
- Activity [22]: Toxic
- Activity [23]: Non-Toxic
- half-life [24]: 5 h
- concentration at 2 h [25]: 49 ng/mL
- concentration at 2 h [26]: 148 ng/mL
- Cmax [27]: 989 ng/mL
- concentration at 2 h [28]: 304 ng/mL
- concentration at 0.5 h [29]: 580 ng/mL
- Activity [30]: Non-Toxic
- EC50 (Glutamate NMDA receptor): 12.5 µM
- clearance [31]: 30 mL/min/kg
- Kp at 2 h [32]: 0.15
- IC50 (Vero): 23.2 µM
- Activity (Mus musculus [33]): inactive
- inhibition at 48 h, 60 µM [34]: 96.2%
- Kp at 0.5 h [35]: 0.16
- Tmax [36]: 2 h
- MRT [37]: 3.4 h
- concentration at 0.5 h [38]: 93.4 ng/mL
- AUC(0-t) at 24 h [39]: 4220 ng·h/mL
- IC50 (HEK293): 84.8 µM
- concentration at 0.5 h [40]: 73.9 ng/mL
- inhibition at 2 s, 30 µM (hERG (KCNH2) [41]): 49.1%
